Results as given in US6719958B1, “Polychelants, their complexes with metal ions, their preparation and their uses” (Dibra S.p.A., priority 1996, dated 2004).

Experiments:
[1] = Relaxivity measurement (Bruker Minispec 120, 0.5 T, 39° C.); type: physicochemical; settings: on a per gadolinium basis
Protocol: For some Gd-containing products the relaxivity r1 was measured using a Bruker Minispec 120, at 0.5 T and 39° C.

[2] = according to the literature (Lauffer R. B. (1990) Magn. Reson. Quart. 2, 65-84); cited from earlier work

Row | Molecule | Relaxivity r1 ([1]; 0.5 T and 39° C.) | further results
1 | O=C(O)CN1CCN(CC(=O)O)CCN(CC(=O)NCCCN(CCCC[C@H](NC(=O)OCc2ccccc2)C(=O)O)CCCNC(=O)CN2CCN(CC(=O)O)CCN(CC(=O)O)CCN(CC(=O)O)CC2)CCN(CC(=O)O)CC1 [Example 6, N^α-Carbobenzyloxy-N^ε,N^ε-bis-[4-aza-5-oxo-6-(1,4,7,10-tetraazacyclododecyl-4,7,10-triacetate)hexyl]-L-lysine] | – | Relaxivity r1 [1]: 8.35 s⁻¹ mM⁻¹
2 | O=C([O-])CN1CCN(CC(=O)[O-])CCN(CC(=O)O)CCN(CC(=O)[O-])CC1.[Gd+3] [Gd-DOTA] | – | r1 value [2]: 3.4 mM⁻¹ s⁻¹
3 | Gadolinium Complex of N^□,N^ε,N^ε(a)-Tris-[4-aza-5-oxo-6-(1,4,7,10-tetraazacyclododecol-4,7,10-triacetate)hexyl]-L-lysine [Example 4] | 5.25 s⁻¹ mM⁻¹ | –
4 | Gadolinium Complex of N^□,N^□,N^ε,N^ε-Tetrakis-[4-aza-5-oxo-6-(1,4,7,10-tetraazacyclododecyl-4,7,10-triacetate)hexyl]-L-lysine [Example 5] | 8.35 s⁻¹ mM⁻¹ | –
5 | Example 9: Conjugate of gadolinium complex compound (IVa) with horse heart myoglobin; Gd content 27.9 mol/mol protein (conjugate, UniProt P68082 2-154, looked up, gadolinium complex IVa conjugate, Conjugate of gadolinium complex compound (IVa) with horse heart myoglobin; Gd content 27.9 mol/mol protein) Myoglobin: GLSDGEWQQVLNVWGKVEADIAGHGQEVLIRLFTGHPETLEKFDKFKHLKTEAEMKASEDLKKHGTVVLTALGGILKKKGHHEAELKPLAQSHATKHKIPIKYLEFISDAIIHVLHSKHPGDFGADAQGAMTKALELFRNDIAAKYKELGFQG | 19 s⁻¹ mM⁻¹ | –
